The source of these data is patent US6331555A, “Treatment of platelet derived growth factor related disorders such as cancers” (priority 1999, dated 2001).

The target in one series is PDGFR (Homo sapiens, UniProt P09619). The series is described as follows: PDGF-stimulated receptor phosphorylation in U1242 cells, ELISA. The series is classed as cell-based. On the set-up: U1242 (PDGF-β receptor); host or cells: U1242 MG glioma cells. The note with it: for IC50: 100 ng/ml PDGF-BB, read-out: ELISA P-TYR U1242 IC50. In a few lines: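 U1242 MG cells in 0.5% serum were pretreated with compound for 2 h at 37° C, then stimulated 5–10 min with PDGF-BB (100 ng/ml). Lysates captured on anti-PDGF receptor-coated plates; receptor phosphotyrosine detected by anti-phosphotyrosine ELISA with POD/ABTS read-out at 410 nm.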

The subject of a further series is C6 glioma cells. The series is described as follows: C6 glioma SC xenograft in mice. The series is classed as in vivo. The note with it: for inhibition in vivo at 15 mg/kg: Rattus norvegicus, C6 glioma, sc, read-out: C6 in vivo EFFICACY
Summed up: (§1)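 C6 (3×10^6) or SKOV-3 (1×10^7) cells in PBS were implanted into the hind flank of female Balb/c nu/nu mice on Day 0; U87MG and U118MG went into athymic mice. Tumors were caliper-measured over 3–6 weeks, with volume as length×width×height. P values came from Student's t-test.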

For series [1], the system named is U1242 cells. Nature of the series: Cytotoxicity in U1242 cells, MTT. The series is classed as cell-based, human. The note with it: for CC50: Homo sapiens, read-out: CYTOXICITY MTT U1242 LD50, heading: CYTOXICITY MTT U1242 LD50; for LD50 compared to A10: MTT or LDH. The procedure:
(§2) The cytotoxicity of each drug was also determined. The cells were plated as described above. Following incubation with drug, cell survival was measured by an MTT assay as described by Mossman J. Immunol. Methods 65:55-63 (1983), or by measuring the amount of LDH released (Korzeniewski and Callewaert, J. Immunol. Methods 64:313 (1983); Decker and Lohmann-Matthes, J. Immunol. Methods 115:61 (1988) .

Series [2] relates to U1242 cells. The series is described as follows: Cytotoxicity in U1242 cells, LDH. It counts as cell-based. The note with it: Homo sapiens, read-out: CYTOXICITY LDH U1242 LD50. As to the method:
as §2

Series [3] in a line: C6 glioma SC xenograft in mice. As to conditions: rat, in vivo, ip; for mortality at 336 h: 15 mg/kg. The series is classed as in vivo. In a few lines:
as §1

Where [4] appears, read: heading: CYTOXICITY LDH U1242 LD50.

The structures appear in SMILES notation. Like-named read-outs stand apart in the source and are kept apart here.

PDGFR, sequence (P09619 33-1106): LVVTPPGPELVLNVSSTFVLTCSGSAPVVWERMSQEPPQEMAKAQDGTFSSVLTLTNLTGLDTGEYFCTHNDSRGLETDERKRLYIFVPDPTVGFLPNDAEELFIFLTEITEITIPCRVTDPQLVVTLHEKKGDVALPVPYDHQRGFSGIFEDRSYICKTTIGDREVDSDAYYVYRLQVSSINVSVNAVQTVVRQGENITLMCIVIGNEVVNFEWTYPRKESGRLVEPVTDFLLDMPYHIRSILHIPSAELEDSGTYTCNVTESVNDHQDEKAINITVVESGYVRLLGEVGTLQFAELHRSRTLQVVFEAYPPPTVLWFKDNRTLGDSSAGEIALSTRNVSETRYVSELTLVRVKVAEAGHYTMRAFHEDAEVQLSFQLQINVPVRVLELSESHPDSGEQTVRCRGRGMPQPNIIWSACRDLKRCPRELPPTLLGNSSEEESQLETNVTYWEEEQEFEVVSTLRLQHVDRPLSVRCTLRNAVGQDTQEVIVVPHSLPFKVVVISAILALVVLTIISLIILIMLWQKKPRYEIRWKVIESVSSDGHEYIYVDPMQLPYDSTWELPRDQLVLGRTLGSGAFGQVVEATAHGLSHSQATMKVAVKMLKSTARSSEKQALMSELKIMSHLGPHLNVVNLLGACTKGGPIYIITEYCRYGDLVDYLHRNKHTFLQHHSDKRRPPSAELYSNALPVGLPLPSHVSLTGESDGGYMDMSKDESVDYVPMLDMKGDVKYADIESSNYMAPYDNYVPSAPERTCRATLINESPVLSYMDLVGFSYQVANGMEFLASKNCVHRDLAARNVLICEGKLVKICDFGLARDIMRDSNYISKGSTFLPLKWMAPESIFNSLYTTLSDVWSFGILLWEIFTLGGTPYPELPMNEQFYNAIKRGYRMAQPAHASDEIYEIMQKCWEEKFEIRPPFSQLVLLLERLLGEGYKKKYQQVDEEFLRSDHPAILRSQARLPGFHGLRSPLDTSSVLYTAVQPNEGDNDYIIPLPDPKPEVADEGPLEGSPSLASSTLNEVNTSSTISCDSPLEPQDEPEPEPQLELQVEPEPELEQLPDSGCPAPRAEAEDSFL

For the molecule `Cc1oncc1C(=O)Nc1ccc(C(F)(F)F)cc1` [Compound A10, 5-methylisoxazole-4 carboxylic acid-(4-trifluromethyl)-anilide], the IC50 on PDGFR was determined as 65 µM. Further, the “inhibition in tumor growth” value with C6 glioma cells (15 mg/kg/day (DMSO), after 20 days) is on record as “greater than 90%”. Besides, the “% Inhibition” value is on record as 90% with C6 glioma cells (15 mg/kg/day, DMSO); 92% in the series on C6 glioma cells (15 mg/kg/day, PBTE); 77% in the series on C6 glioma cells (20 mg/kg (DMSO), 2 days); 60% in the series with C6 glioma cells (20 mg/kg (DMSO), 4 days); more than 95% in the series with C6 glioma cells (20 mg/kg (PBTE:D5W), daily); more than 95% with C6 glioma cells (20 mg/kg, PBTE:D5W). Further, the “% Inhibition” value in the series on C6 glioma cells (20 mg/kg/day, DMSO) is on record as 95%; with C6 glioma cells (20 mg/kg/day, PBTE) it was more than 95%; with C6 glioma cells (30 mg/kg (DMSO), 2 days) it was 91%; in the series with C6 glioma cells (30 mg/kg (DMSO), 3 days), 87%; in the series with C6 glioma cells (40 mg/kg (PBTE), 2 days), more than 95%; in the series with C6 glioma cells (40 mg/kg/2 days, PBTE) it was more than 95%. Besides, the “% Inhibition” value is on record as 51% with C6 glioma cells (60 mg/kg (PBTE), weekly); 63% in the series on C6 glioma cells (100 mg/kg (PBTE), weekly); more than 95% in the series with C6 glioma cells (nu/nu, 20 mg/kg/day, day 21); 84% in the series on C6 glioma cells (nu/nu†, 20 mg/kg/day, day 18, delayed start). In addition, the efficacy of formulations result in the series with C6 glioma cells (PBTE, PBTE:D5W and DMSO) is on record as “equivalent in vivo inhibition of tumor growth”. The “In Vivo inhibition” value in the series with C6 glioma cells (xenografted athymic mice) turned out to be 95%.

Consider `N#CC(=Cc1c[nH]c2ccccc12)C(N)=S` [Compound D11], for which, in the series with U1242 cells [1], the CC50 came to 90 µM. Besides, at PDGFR, the half-inhibitory concentration (IC50) turned out to be 8 µM.

Turning to `N#CC(=Cc1c[nH]c2ccccc12)c1[nH]nc(N)c1C#N` [Compound D14], in the series with U1242 cells [2], the CC50 was more than 100 µM. For the same molecule, on PDGFR, the IC50 worked out at 20 µM.

`CN(C)CCCn1cc(C=C(C#N)c2[nH]nc(N)c2C#N)c2ccccc21` [Compound D15]: the CC50 in the series on U1242 cells [1] was 80 µM. In addition, on PDGFR, the IC50 is 20 µM.

Regarding `O=c1c2ccccc2nc(C=Cc2ccc(O)c(O)c2)n1CCO` [Compound F10], the IC50 at PDGFR came to 45 µM.

On to `Cc1cc2ncc(-c3ccccc3)nc2cc1C` [Compound G13], for which, in the series on U1242 cells [1], the CC50 is 100 µM and the “LD50 compared to A10” value is reported as “LD50 less than A10”. Further, the CC50 in the series with U1242 cells [2] (setting [4]) was more than 100 µM. Besides, at PDGFR, the “inhibition of PDGF-stimulated receptor phosphorylation” value was “had the lowest IC50”. For the same molecule, in series [3], the mortality at 336 h amounted to 0%. For the same molecule, in the series on C6 glioma cells, the inhibition in vivo at 15 mg/kg is 12%.

In the case of `COc1cc2ncc(-c3ccccc3)nc2cc1OC` [Compound G14], the “LD50 compared to A10” value with U1242 cells [1] is on record as “LD50 less than A10”. Besides, the CC50 in the series on U1242 cells [2] (setting [4]) is more than 100 µM. On PDGFR, the “inhibition of PDGF-stimulated receptor phosphorylation” value was “had the lowest IC50” and the concentration for half-maximal inhibition (IC50) was 0.8 µM. Moreover, the mortality at 336 h in series [3] was 0%. The inhibition in vivo at 15 mg/kg with C6 glioma cells (at 15 mg/kg) amounted to 36%.

Consider `Cc1cc2nc(-c3ccccc3)c(=O)[nH]c2cc1C` [Compound G18], for which the CC50 with U1242 cells [2] is more than 100 µM. In addition, the IC50 at PDGFR stood at 10 µM.

Consider `c1ccc(-c2cnc3cc4ccccc4cc3n2)cc1` [Compound G22], for which the CC50 in the series on U1242 cells [2] was more than 100 µM. Moreover, at PDGFR, the IC50 was 1 µM. Also, the mortality in series [3] (20 mg/kg) came out at 0%. For the same molecule, the “C6 in vivo EFFICACY” value with C6 glioma cells (at 20 mg/kg) is given as “no effect”.

By IC50 is commonly meant the point on the concentration scale where inhibition reaches its midpoint. The % Inhibition is the relative decrease from the control value, in per cent. As a reminder, the mortality is the share of the test organisms that died. A higher mortality goes with fewer survivors.
